Laboratory results published in patent publication US9526782B2, “Pharmaceutical compositions comprising inhibitors of zinc-ZIP8-MTF1 as active ingredients for preventing or treating a joint disease” (GWANGJU INSTITUTE OF SCIENCE AND TECHNOLOGY, priority 2014, dated 2016).

What was measured:
[1] = test system: Mt1 and Mt2; assay: mRNA and protein levels of MT1 and MT2 in chondrocytes; type: cell-based, mouse; conditions: primary cultured chondrocytes
From the text: (§1) Total RNA was extracted from primary cultured chondrocytes using the TRI reagent (Molecular Research Center Inc.). For the isolation of RNA from knee joints, cartilage tissues were scraped with a blade to remove cartilage, and RNA was isolated using the TRI reagent and Purelink RNA mini kit (Ambion). The RNA was reverse transcribed, and the resulting cDNA was amplified by PCR.

[2] = target: T1, MTF1 (Mus musculus, UniProt Q07243); assay: MTF1 activity reporter gene assay and immunostaining in chondrocytes; type: cell-based
T1 construct: endogenous in cells; host or cells: primary mouse articular chondrocytes
Protocol: The MTF1 reporter gene assay kit was obtained from SABiosciences. Chondrocytes were transfected for 6 hours with a metal response element (MRE) reporter construct and a constitutive Renilla luciferase construct using Lipofectamine 2000 (Invitrogen). Transfected cells were infected with Ad-Mtf1 or Ad-Zip8 for 2 hours or treated with metal ions. Cells were harvested 24 hours after treatment, and firefly luciferase and Renilla luciferase activities were measured using a Dual Luciferase Assay System (Promega). […] MTF1 was detected by immunofluorescence microscopy. Images were acquired using a fluorescence microscope, and at least 200 cells were examined in multiple fields per condition to quantify the percentage of nuclear MTF1-positive cells.

[3] = test system: DMM-operated mice; assay: DMM surgery-induced OA with Zn^2+ diets or intraperitoneal ZnCl2; type: in vivo, mouse; conditions: intraperitoneal, 5 mg/kg body weight twice a week, 6 weeks after surgery
Protocol: FIG. 6m represents that knee joint sections were prepared from sham- and DMM-operated mice that were fed low-Zn^2+ (<0.5 mg zinc/kg), adequate-Zn^2+ (30 mg zinc/kg), or high-Zn^2+ (300 mg zinc/kg) diets. Cartilage destruction was determined by safranin-O/hematoxylin staining and quantified (n=10).
FIG. 6n represents that sham- and DMM-operated mice were intraperitoneally injected with PBS or ZnCl2 (5 mg/kg body weight) twice a week until they are sacrificed 6 weeks after surgery. Knee joint sections were stained with safranin-O/hematoxylin and cartilage destruction was determined (n=10). […]
Human OA cartilage was frozen, sectioned at 10-μm thickness, and fixed in paraformaldehyde. Sulfate proteoglycan was detected with alcian blue staining. Human ZIP8 was detected by immunostaining. […] Sections were deparaffinized in xylene, hydrated with graded ethanol, and stained with safranin-O. Cartilage destruction was scored by two blinded observers using the OARSI grading system (Glasson et al., 2010). Synovitis was determined by safranin-O and hematoxylin staining, and synovial inflammation (grade 0-3) was scored as described previously (Yang et al., 2010). Osteophyte development was identified by safranin-O staining, and osteophyte maturity was quantified as described previously (Oh et al., 2012). […]

[4] = test system: matrix-degrading enzymes (MMP3, MMP9, MMP12, MMP13, and ADAMTS5); assay: mRNA (qRT-PCR) and protein (Western blotting) levels of matrix-degrading enzymes in chondrocytes; type: cell-based, mouse
Protocol: Adenoviruses expressing mouse Zip8 (Ad-Zip8) and Mtf1 (Ad-Mtf1) were purchased from Vector Biolabs. Mouse articular chondrocytes were cultured for 2 days, infected with empty virus (Ad-C), Ad-Zip8, or Ad-Mtf1 for 2 hours at the indicated multiplicity of infection (MOI), and cultured for 24 hours, followed by further analyses.
as §1
Transcript levels were quantified by qRT-PCR. siRNAs targeting Zip8 and Mtf1 were obtained from Dharmacon and transfected using Lipofectamine 2000. Non-targeting (scrambled) siRNA was used as a negative control. Chondrocytes were transfected by incubating for 6 hours with siRNA and Lipofectamine 2000 (Invitrogen), and infected with adenoviruses as described above. Therapeutic antibodies for obstruction of ZIP8 function were purchased from Santa Cruz Biotechnology and MyBioSource Company, and treated in chondrocytes for 24 hours.
Total cell lysates were prepared in lysis buffer (150 mM NaCl, 1% NP-40, 50 mM Tris, 5 mM NaF) and used to detect cellular proteins (ZIP8, MTF1, and ERK). Secreted proteins (MMP3, MMP13, and ADAMTS5) were detected after trichloroacetic acid (TCA) precipitation from 900 μl of serum-free conditioned medium. All lysis buffers contained a cocktail of protease inhibitors and phosphatase inhibitors (Roche).

[5] = Ad-Zip8 chondrocytes, TPEN 1 μM pre-incubated with 1 μM metal ion

T1 sequence (Q07243 whole entry): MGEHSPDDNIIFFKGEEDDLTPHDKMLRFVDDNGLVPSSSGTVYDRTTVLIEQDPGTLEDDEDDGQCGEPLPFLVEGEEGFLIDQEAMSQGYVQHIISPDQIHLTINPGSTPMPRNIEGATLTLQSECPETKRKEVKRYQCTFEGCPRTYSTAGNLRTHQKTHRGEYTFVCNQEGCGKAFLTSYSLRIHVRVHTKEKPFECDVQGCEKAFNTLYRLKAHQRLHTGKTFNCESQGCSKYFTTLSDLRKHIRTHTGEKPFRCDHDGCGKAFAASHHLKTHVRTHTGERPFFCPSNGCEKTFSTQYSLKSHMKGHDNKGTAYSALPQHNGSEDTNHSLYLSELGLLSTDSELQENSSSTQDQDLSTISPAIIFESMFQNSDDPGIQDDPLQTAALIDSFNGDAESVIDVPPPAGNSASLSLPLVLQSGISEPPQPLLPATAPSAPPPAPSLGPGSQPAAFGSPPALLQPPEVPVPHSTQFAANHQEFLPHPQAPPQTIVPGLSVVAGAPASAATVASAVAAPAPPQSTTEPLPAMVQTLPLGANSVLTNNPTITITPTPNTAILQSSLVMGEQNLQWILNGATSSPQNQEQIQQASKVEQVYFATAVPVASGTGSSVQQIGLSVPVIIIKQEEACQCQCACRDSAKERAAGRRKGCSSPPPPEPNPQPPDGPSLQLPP

Compound: [Cl-].[Cl-].[Zn+2] [ZnCl2]
- expression of Mt1 and Mt2 [1]: significantly increased
- inhibitory effects of TPEN on MTF1 transcriptional activity, effect of pre-incubation of TPEN with the metal salt [2, 5]: abolished
- nuclear localization of MTF1 ([2]; chondrocytes): most effective
- MTF1 transcriptional activity, effect of the substance itself ([2]; chondrocytes, reporter gene assay): most effective
- DMM-induced cartilage destruction [3]: augmented
- inhibitory effects of TPEN on the ZIP8-mediated expression of matrix-degrading enzymes, effect of pre-incubation of TPEN with the metal salt [4, 5]: effectively abolished
- expression of matrix-degrading enzymes caused by the substance itself ([4]; chondrocytes, metal salts 100 μM (CdCl2 1 μM)): up-regulated
